The record followed here is ChEMBL document CHEMBL5352433, “Design, synthesis, and biological evaluation of low-toxic lappaconitine derivatives as potential analgesics” (Eur J Med Chem, 2022).

Data set [1] addresses T1, Voltage-gated inwardly rectifying potassium channel KCNH2 (Homo sapiens, UniProt Q12809). The data set can be described thus: Inhibition of hERG expressed in HEK cells assessed as Rb+ efflux ratio at 10 mg/L incubated for 4 mins (reference value: 79.71 to 94.98 %). The conditions noted are these: at 10 µg/mL. The data set is classed as toxicity, cell-based. Further details: scale not given: the % may be the effect or the level left. On the technique in general: hERG is a cardiac potassium channel; its block is linked to QT prolongation.

The test system of data set [2] is Mus musculus. The data set can be described thus: Analgesic activity against sc dosed acetic acid-induced Kunming writhing mouse model assessed as inhibition of writhing pretreated with compound for 15 mins followed by acetic acid addition and measured after 15 mins. The data set is classed as functional. The conditions noted are these: 0.5 h, time 30 min.
For data set [3], the target named is T1, Voltage-gated inwardly rectifying potassium channel KCNH2. The experiment in a line: Inhibition of hERG expressed in HEK cells assessed as Rb+ efflux ratio at 100 mg/L incubated for 4 mins (reference value: 79.71 to 94.98 %). The note with it: at 100 µg/mL. Further details: scale not given: the % may be the effect or the level left. It is filed as toxicity, cell-based.

Data set [4] deals with Mus musculus. The experiment in a line: Analgesic activity against acetic acid-induced Kunming writhing mouse model assessed as inhibition of writhing at 10 mg/kg, sc pretreated with compound for 15 mins followed by acetic acid addition and measured after 15 mins relative to control. The conditions noted are these: 0.5 h, time 30 min. It is filed as functional.
Data set [5] concerns the target T1, Voltage-gated inwardly rectifying potassium channel KCNH2. The data set can be described thus: Inhibition of hERG expressed in HEK cells assessed as Rb+ efflux ratio at 1 mg/L incubated for 4 mins (reference value: 79.71 to 94.98 %). It is filed as toxicity, cell-based. Further details: scale not given: the % may be the effect or the level left. The conditions noted are these: at 1 µg/mL.

Data set [6] can be described thus: Therapeutic index, ratio of LD50 for acute toxicity in sc dosed Kunming mouse to ratio of ED50 for analgesic activity against sc dosed acetic acid-induced Kunming writhing mouse model. It is filed as organism-based. The note with it: in vivo, read-out: TI. On the technique in general: An intraperitoneal irritant provokes the stretching counted in writhing tests.

A short description of data set [7]: Acute toxicity in sc dosed Kunming mouse assessed as mortality rate measured after 24 hrs. The data set is classed as organism-based. The conditions noted are these: in vivo.
Data set [8] is described as follows: Drug metabolism in sc dosed acetic acid-induced Kunming writhing mouse model assessed as metabolites in urine. The conditions noted are these: in vivo. It is filed as ADME, organism-based.
The nature of data set [9]: Drug metabolism in sc dosed acetic acid-induced Kunming writhing mouse model assessed as metabolites in feces. It is filed as ADME, organism-based. The note with it: in vivo.

What is called ED50 is the midpoint of the dose-response relation. For orientation: inhibition in vivo means the relative decrease from the control value, in per cent. The term LD50 denotes the dose at which mortality reaches 50%.

T1 sequence (Q12809 whole entry): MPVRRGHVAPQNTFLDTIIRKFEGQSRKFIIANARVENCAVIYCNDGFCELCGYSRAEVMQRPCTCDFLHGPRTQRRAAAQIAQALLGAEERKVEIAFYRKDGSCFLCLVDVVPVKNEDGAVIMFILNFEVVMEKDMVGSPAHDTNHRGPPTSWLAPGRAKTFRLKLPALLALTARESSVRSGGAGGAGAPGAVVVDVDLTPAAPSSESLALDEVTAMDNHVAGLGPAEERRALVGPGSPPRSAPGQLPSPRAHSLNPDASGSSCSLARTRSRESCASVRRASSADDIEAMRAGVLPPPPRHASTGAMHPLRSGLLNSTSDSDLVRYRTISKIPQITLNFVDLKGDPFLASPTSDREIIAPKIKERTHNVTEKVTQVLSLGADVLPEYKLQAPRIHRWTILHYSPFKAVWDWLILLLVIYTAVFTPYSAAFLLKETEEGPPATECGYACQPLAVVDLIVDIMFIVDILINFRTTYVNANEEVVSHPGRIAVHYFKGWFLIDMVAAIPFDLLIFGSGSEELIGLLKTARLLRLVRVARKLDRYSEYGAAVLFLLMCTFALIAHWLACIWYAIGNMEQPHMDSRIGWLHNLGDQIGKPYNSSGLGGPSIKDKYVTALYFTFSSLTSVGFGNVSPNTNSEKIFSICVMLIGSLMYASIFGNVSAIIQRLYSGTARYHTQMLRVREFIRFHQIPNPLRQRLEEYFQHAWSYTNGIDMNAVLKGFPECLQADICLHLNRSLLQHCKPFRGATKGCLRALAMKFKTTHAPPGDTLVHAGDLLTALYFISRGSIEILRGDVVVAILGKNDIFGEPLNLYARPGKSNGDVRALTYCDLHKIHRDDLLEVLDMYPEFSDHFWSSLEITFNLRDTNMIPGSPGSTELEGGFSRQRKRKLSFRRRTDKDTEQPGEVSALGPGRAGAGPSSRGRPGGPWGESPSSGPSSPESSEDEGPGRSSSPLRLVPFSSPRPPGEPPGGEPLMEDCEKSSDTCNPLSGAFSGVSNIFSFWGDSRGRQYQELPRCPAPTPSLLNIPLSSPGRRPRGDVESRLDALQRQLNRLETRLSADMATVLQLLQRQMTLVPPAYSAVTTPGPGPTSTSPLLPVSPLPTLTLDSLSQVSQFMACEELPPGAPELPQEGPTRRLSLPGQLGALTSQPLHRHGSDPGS

As for `CCN1C[C@]2(OC(=O)c3ccccc3NS(=O)(=O)c3ccccn3)CC[C@H](OC)[C@]34C1[C@H](C[C@H]23)[C@@]1(O)C[C@H](OC)[C@H]2C[C@@H]4[C@]1(O)[C@H]2OC`, the Activity in [1] is given as 88.42%; in data set [3], 73.6%; in [5] it was 95.97%. In addition, the median effective dose (ED50) with Mus musculus [2] came to 4.7 mg/kg. For the same molecule, in the data set with Mus musculus [4], the inhibition in vivo at 10 mg/kg came to 71.2%. In addition, the selectivity ratio in data set [6] is > 85.1. Moreover, the median lethal dose (LD50) at 24 h in [7] is > 400 mg/kg. Further, the Drug metabolism entry in [8] and in data set [9] was “Metabolite_Detected” in each case.
